Species on record: Rattus norvegicus
Assay: Open TG-GATES - Regimen: Single
Assay type: toxicity, organism-based, Sprague-Dawley
Set-up: regimen Single, gender Male, age 6 weeks
Details: in vivo, po, 15 mg/kg, route gavage, dose level Low; for APTT / Bas / Eos / Fbg / Hb / Ht / Lym / MCH / MCHC / MCV / Mono / Neu / PT / Plat / RBC / Ret / WBC: tissue Blood; for KIDNEY_L / KIDNEY_R / KIDNEY_TOTAL: tissue Kidney; for LIVER: tissue Liver; for A/G / ALP / ALT / AST / BUN / CRE / Ca / Cl / DBIL / GLC / IP / K / LDH / Na / PL / RALB / TBIL / TC / TG / TP / gamma-GTP: tissue Plasma

SMILES: CC(C)C(=O)Nc1ccc([N+](=O)[O-])c(C(F)(F)F)c1 [FLUTAMIDE]
- TERMINAL_BW (3 h): 209 g
- APTT (3 h): 19 s
- Bas (3 h): 0%
- Eos (3 h): 0.8%
- Fbg (3 h): 219.6 mg/dL
- Hb (3 h): 13.5 g/dL
- Ht (3 h): 39.7%
- Lym (3 h): 80%
- MCH (3 h): 22 pg
- MCHC (3 h): 33.9%
- MCV (3 h): 64.6 fL
- Mono (3 h): 3%
- Neu (3 h): 14.6%
- PT (3 h): 12.6 s
- Plat (3 h): 128.6 x10_4/uL
- RBC (3 h): 615.6 x10_4/ul
- Ret (3 h): 7.5%
- WBC (3 h): 110 x10_2/uL
- KIDNEY_L (3 h): 0.9 g
- KIDNEY_R (3 h): 0.9 g
- KIDNEY_TOTAL (3 h): 1.8 g
- LIVER (3 h): 9.3 g
- A/G (3 h): 1.7
- ALP (3 h): 1106 IU/L
- ALT (3 h): 39 IU/L
- AST (3 h): 69.6 IU/L
- BUN (3 h): 12 mg/dL
- CRE (3 h): 0.4 mg/dL
- Ca (3 h): 11 mg/dL
- Cl (3 h): 103 meq/L
- DBIL (3 h): 0.2 mg/dL
- GLC (3 h): 212.6 mg/dL
- IP (3 h): 9.8 mg/dL
- K (3 h): 3.7 meq/L
- LDH (3 h): 187.2 IU/L
- Na (3 h): 140.4 meq/L
- PL (3 h): 177.2 mg/dL
- RALB (3 h): 3.5 g/dL
- TBIL (3 h): 0.3 mg/dL
- TC (3 h): 87.8 mg/dL
- TG (3 h): 127 mg/dL
- TP (3 h): 5.6 g/dL
- gamma-GTP (3 h): 1.2 IU/L
- TERMINAL_BW (6 h): 207.2 g
- APTT (6 h): 19.3 s
- Bas (6 h): 0%
- Eos (6 h): 0.8%
- Fbg (6 h): 228.6 mg/dL
- Hb (6 h): 13.3 g/dL
- Ht (6 h): 39.1%
- Lym (6 h): 78.2%
- MCH (6 h): 21.8 pg
- MCHC (6 h): 34%
- MCV (6 h): 63.9 fL
- Mono (6 h): 3.6%
- Neu (6 h): 16.8%
- PT (6 h): 12.7 s
- Plat (6 h): 126.9 x10_4/uL
- RBC (6 h): 611.2 x10_4/ul
- Ret (6 h): 7.5%
- WBC (6 h): 103.4 x10_2/uL
- KIDNEY_L (6 h): 0.9 g
- KIDNEY_R (6 h): 0.9 g
- KIDNEY_TOTAL (6 h): 1.8 g
- LIVER (6 h): 9.3 g
- A/G (6 h): 1.7
- ALP (6 h): 1000.8 IU/L
- ALT (6 h): 37 IU/L
- AST (6 h): 69.6 IU/L
- BUN (6 h): 8.8 mg/dL
- CRE (6 h): 0.3 mg/dL
- Ca (6 h): 10.6 mg/dL
- Cl (6 h): 103.2 meq/L
- DBIL (6 h): 0.1 mg/dL
- GLC (6 h): 194.8 mg/dL
- IP (6 h): 9.7 mg/dL
- K (6 h): 4 meq/L
- LDH (6 h): 154 IU/L
- Na (6 h): 140 meq/L
- PL (6 h): 159.2 mg/dL
- RALB (6 h): 3.5 g/dL
- TBIL (6 h): 0.2 mg/dL
- TC (6 h): 88.2 mg/dL
- TG (6 h): 53.8 mg/dL
- TP (6 h): 5.6 g/dL
- gamma-GTP (6 h): 1.2 IU/L
- TERMINAL_BW (9 h): 204.9 g
- APTT (9 h): 18 s
- Bas (9 h): 0%
- Eos (9 h): 1%
- Fbg (9 h): 213.6 mg/dL
- Hb (9 h): 13.6 g/dL
- Ht (9 h): 39.8%
- Lym (9 h): 77.2%
- MCH (9 h): 21.8 pg
- MCHC (9 h): 34.2%
- MCV (9 h): 63.6 fL
- Mono (9 h): 3.6%
- Neu (9 h): 17.6%
- PT (9 h): 13 s
- Plat (9 h): 121.6 x10_4/uL
- RBC (9 h): 624.8 x10_4/ul
- Ret (9 h): 7.7%
- WBC (9 h): 91.2 x10_2/uL
- KIDNEY_L (9 h): 0.9 g
- KIDNEY_R (9 h): 0.9 g
- KIDNEY_TOTAL (9 h): 1.9 g
- LIVER (9 h): 8.4 g
- A/G (9 h): 1.6
- ALP (9 h): 967.8 IU/L
- ALT (9 h): 31.8 IU/L
- AST (9 h): 62.2 IU/L
- BUN (9 h): 10.6 mg/dL
- CRE (9 h): 0.3 mg/dL
- Ca (9 h): 10.3 mg/dL
- Cl (9 h): 103.8 meq/L
- DBIL (9 h): 0.082 mg/dL
- GLC (9 h): 207.8 mg/dL
- IP (9 h): 9.8 mg/dL
- K (9 h): 3.7 meq/L
- LDH (9 h): 182.2 IU/L
- Na (9 h): 141.8 meq/L
- PL (9 h): 131.4 mg/dL
- RALB (9 h): 3.4 g/dL
- TBIL (9 h): 0.1 mg/dL
- TC (9 h): 69.8 mg/dL
- TG (9 h): 45.4 mg/dL
- TP (9 h): 5.6 g/dL
- gamma-GTP (9 h): 0.8 IU/L
- TERMINAL_BW (24 h): 218.9 g
- APTT (24 h): 17.6 s
- Bas (24 h): 0%
- Eos (24 h): 1%
- Fbg (24 h): 212 mg/dL
- Hb (24 h): 13.6 g/dL
- Ht (24 h): 40.3%
- Lym (24 h): 78.6%
- MCH (24 h): 22 pg
- MCHC (24 h): 33.8%
- MCV (24 h): 64.9 fL
- Mono (24 h): 3.8%
- Neu (24 h): 16%
- PT (24 h): 12.5 s
- Plat (24 h): 125.4 x10_4/uL
- RBC (24 h): 621.2 x10_4/ul
- Ret (24 h): 6.6%
- WBC (24 h): 79.6 x10_2/uL
- KIDNEY_L (24 h): 0.9 g
- KIDNEY_R (24 h): 1 g
- KIDNEY_TOTAL (24 h): 1.9 g
- LIVER (24 h): 10.7 g
- A/G (24 h): 1.7
- ALP (24 h): 981 IU/L
- ALT (24 h): 39 IU/L
- AST (24 h): 72.2 IU/L
- BUN (24 h): 13.8 mg/dL
- CRE (24 h): 0.4 mg/dL
- Ca (24 h): 10.4 mg/dL
- Cl (24 h): 104.6 meq/L
- DBIL (24 h): 0.094 mg/dL
- GLC (24 h): 205.6 mg/dL
- IP (24 h): 7.1 mg/dL
- K (24 h): 3.8 meq/L
- LDH (24 h): 155.2 IU/L
- Na (24 h): 141.8 meq/L
- PL (24 h): 146 mg/dL
- RALB (24 h): 3.5 g/dL
- TBIL (24 h): 0.2 mg/dL
- TC (24 h): 81.2 mg/dL
- TG (24 h): 83.4 mg/dL
- TP (24 h): 5.5 g/dL
- gamma-GTP (24 h): 1 IU/L
